Measurements: article PMC6364417, “Kinase inhibitor library screening identifies synergistic drug combinations effective in sensitive and resistant melanoma cells” (Journal of Experimental & Clinical Cancer Research : CR, 2019)
Where two headings read alike, the source gives them in different places.

Assays:
501Mel cells (parental) [1] = assay: Dose-response curves and IC50, PrestoBlue cell viability, 72 h; conditions: read-out: Half-maximal inhibitory concentration (IC50)
[2] = test system: IGR37-XP cells (Vemurafenib-resistant); assay: as above; conditions: read-out: Half-maximal inhibitory concentration (IC50)
PARP cleavage = assay: Western blot, PARP cleavage in A375 cells; format: cell-based, human; conditions: A375, A375-XP, A375-GP; 24 h treatment
A375 cells (parental) [3] = assay: Dose-response curves and IC50, PrestoBlue cell viability, 72 h; format: cell-based, human; conditions: read-out: Half-maximal inhibitory concentration value (IC50), Mean
[4] = test system: A375 cells (parental sensitive) tumors; assay: In vivo assay, subcutaneous melanoma tumors in NSG mice; design: species or system NOD scid gamma (NSG) mice; conditions: NSG mice with A375 or A375-XP tumors, 8 days of daily treatment
Procedure: NOD scid gamma (NSG) mice were bred in-house and experiments were performed according to all applicable laws and regulations, after receiving approval by the institution’s animal experimentation ethics committee and the veterinarian service of the Ministry of Agriculture (Permit Number: 18-MDM-01). Single parental sensitive A375 cells (0.5 × 10^6 cells) and Vemurafenib-resistant A375-XP cells (2 × 10^6 cells) were resuspended in 100 μL of 1:1 mixed serum-free medium and matrigel (BD Biosciences) and injected subcutaneously in 6–8 week-old mice. […] Control mice received the respective vehicle by oral gavage and intraperitoneal injection. […] Statistical analysis was done using a two-way ANOVA followed by post-hoc Tukey’s multiple comparison tests.

[5] = test system: 501Mel-XP cells (Vemurafenib-resistant); assay: Dose-response curves and IC50, PrestoBlue cell viability, 72 h; conditions: read-out: Half-maximal inhibitory concentration (IC50)
[6] = test system: A375-GP cells (Dabrafenib-resistant); assay: as above; format: cell-based, human; conditions: n.e. = did not suppress growth below 50% in the tested concentration range; for IC50: read-out: Half-maximal inhibitory concentration value (IC50), Mean
[7] = test system: IGR37-GP cells (Dabrafenib-resistant); assay: as above; conditions: read-out: Half-maximal inhibitory concentration (IC50)
A375 cells = assay: Synergy determination with the Chou-Talalay method (CompuSyn), cell viability 72 h; format: cell-based, human; conditions: 72 h cell viability, Chou-Talalay / Synergyfinder
Procedure: The Chou-Talalay method to determine possible synergistic effects of selected kinase inhibitor combinations was used as described in [19]. […] Cells were treated with either single inhibitors or combinations thereof at indicated amounts in technical triplicates. The amounts were pre-determined from each inhibitor’s IC50 value and inhibitors were assayed in a defined dilution series and at constant ratio when combined. […] Combination Index (CI) values showing either synergy (< 1) or antagonism (> 1) were calculated with the CompuSyn software (ComboSyn, Inc).

IGR37 cells (parental) [8] = assay: Dose-response curves and IC50, PrestoBlue cell viability, 72 h; conditions: read-out: Half-maximal inhibitory concentration (IC50)
[9] = test system: 501Mel-GP cells (Dabrafenib-resistant); assay: as above; conditions: read-out: Half-maximal inhibitory concentration (IC50)
[10] = test system: A375-XP cells (Vemurafenib-resistant); assay: as above; format: cell-based, human; conditions: n.e. = did not suppress growth below 50% in the tested concentration range; for IC50: read-out: Half-maximal inhibitory concentration value (IC50), Mean
[11] = test system: NHDF (normal human dermal fibroblasts); assay: Dose-response curves and IC50 in non-cancer cells, cell viability, 72 h; conditions: for effect on healthy cells, cell viability (in words): fibroblasts (NHDF)
Procedure: (§1) The IC50 values (nM) were calculated as indicated in Methods.

[12] = test system: NHEM (normal human epidermal melanocytes); assay: as above; conditions: for effect on healthy cells, cell viability (in words): melanocytes (NHEM)
Procedure: as §1

[13] = test system: A375 parental cells expressing iRFP; assay: Long-term inhibitor treatment, iRFP fluorescence proliferation monitoring; format: cell-based, human
Procedure: A375 parental and BRAFi-resistant cells, virally transduced with the near-infrared fluorescent protein (iRFP) were seeded at a density of 2500 cells/well in a 24-well plate (Greiner) in at least technical triplicates. Inhibitors, single or in combination, were added at the indicated amounts and replenished every 72 h for a duration of 76 days. To assess whether any remaining cells have become resistant to the treatment and would re-emerge, the drugs were removed and the cells underwent “drug holidays” for an additional 21 days. During the long-term treatment, cell proliferation was monitored bi-weekly on a LI-COR Odyssey Infrared Imaging System (LI-COR Biosciences). Fluorescence intensity was quantified with the Image Studio™ Lite software (LI-COR Biosciences).

[14] = test system: 501Mel-GP cells (Dabrafenib-resistant); assay: Kinase inhibitor library screening, PrestoBlue cell viability, 1 or 10 μM, 72 h; conditions: 501Mel GP
IGR37 cells (parental) [15] = assay: as above; conditions: IGR37 Parental
[16] = test system: A375-GP cells (Dabrafenib-resistant); assay: as above; conditions: A375 GP
[17] = test system: IGR37-XP cells (Vemurafenib-resistant); assay: as above; conditions: IGR37 XP
[18] = test system: IGR37-GP cells (Dabrafenib-resistant); assay: as above; conditions: IGR37 GP
[19] = test system: 501Mel-XP cells (Vemurafenib-resistant); assay: as above; conditions: 501Mel XP
A375 cells (parental) [20] = assay: as above; conditions: A375 Parental
501Mel cells (parental) [21] = assay: as above; conditions: 501Mel Parental
Outline: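 Normalised to untreated controls, viability percentages came from PrestoBlue measured on a microplate reader following 72 h incubation with drug. Each line was assayed at least twice.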

[22] = test system: A375-XP cells (Vemurafenib-resistant); assay: as above; conditions: A375 XP
[23] = Homo sapiens, A-375, n.e. = did not suppress growth below 50% in the tested concentration range
[24] = n.e. = did not suppress growth below 50% in the tested concentration range

NC(=O)Nc1cc(-c2cccc(F)c2)sc1C(=O)N[C@H]1CCCNC1 [AZD7762]
IC50 (501Mel cells (parental) [1]; Homo sapiens, 72 h): 306 nM | IC50 ([2]; Homo sapiens, 72 h): 58 nM | Cleavage of PARP (in words) (PARP cleavage): induced | IC50 (A375 cells (parental) [3]; [23]): 311 nM | body weight and side effects during treatment (in words) [4]: did not lose weight | IC50 ([5]; Homo sapiens, 72 h): 188 nM | IC50 ([6]; Homo sapiens): 299 nM | IC50 ([7]; Homo sapiens, 72 h): 70 nM | synergistic effects with the BRAF inhibitors Vemurafenib and/or Dabrafenib (in words) (A375 cells): clear synergistic effects | IC50 (IGR37 cells (parental) [8]; Homo sapiens, IGR-37, 72 h): 65 nM | IC50 ([9]; Homo sapiens, 72 h): 426 nM | IC50 ([10]; Homo sapiens): 366 nM | IC50 ([11]; Homo sapiens, NHDF, read-out: Half-maximal inhibitory concentration (IC50), NHDF Mean): 532 nM | effect on healthy cells, cell viability (in words) [11]: very modest effects | IC50 ([12]; Homo sapiens, Melanocyte, read-out: Half-maximal inhibitory concentration (IC50), NHEM Mean): 358 nM | effect on healthy cells, cell viability (in words) [12]: very modest effects

O=c1[nH]c2ccc(Cl)cc2c(N[C@@H]2CN3CCC2CC3)c1-c1nc2ccccc2[nH]1 [CHIR-124, reference compound]
long-term cell growth under drug until day 76 (in words) ([13]; 150 nM, even with Dabrafenib (data not shown)): not sufficient to prevent cells to grow back | long-term cell growth under drug until day 76 (in words) ([13]; 300 nM single treatment): killed most of the cells | cell viability (kinase inhibitor library screening) ([14]; 1μΜ, 72 h): 40.5% | cell viability (kinase inhibitor library screening) ([14]; 10μΜ, 72 h): 0.146% | cell viability (kinase inhibitor library screening) (IGR37 cells (parental) [15]; 1μΜ, 72 h): 57.6% | cell viability (kinase inhibitor library screening) (IGR37 cells (parental) [15]; 10μΜ, 72 h): 1.0% | cell viability (kinase inhibitor library screening) ([16]; 1μΜ, 72 h): 18.2% | cell viability (kinase inhibitor library screening) ([16]; 10μΜ, 72 h): 1.5% | cell viability (kinase inhibitor library screening) ([17]; 1μΜ, 72 h): 63.5% | cell viability (kinase inhibitor library screening) ([17]; 10μΜ, 72 h): 1.6% | cell viability (kinase inhibitor library screening) ([18]; 1μΜ, 72 h): 91.0% | cell viability (kinase inhibitor library screening) ([18]; 10μΜ, 72 h): 2.3% | cell viability (kinase inhibitor library screening) ([19]; 1μΜ, 72 h): 26.0% | cell viability (kinase inhibitor library screening) ([19]; 10μΜ, 72 h): 0.156% | cell viability (kinase inhibitor library screening) (A375 cells (parental) [20]; 10μΜ, 72 h): 2.4% | cell viability (kinase inhibitor library screening) (A375 cells (parental) [20]; 1μΜ, 72 h): 23.5% | cell viability (kinase inhibitor library screening) (501Mel cells (parental) [21]; 1μΜ, 72 h): 47.8% | cell viability (kinase inhibitor library screening) (501Mel cells (parental) [21]; 10μΜ, 72 h): 0.9% | cell viability (kinase inhibitor library screening) ([22]; 1μΜ, 72 h): 40.8% | cell viability (kinase inhibitor library screening) ([22]; 10μΜ, 72 h): 1.5% | IC50 (A375 cells (parental) [3]; [24]): 233 nM | IC50 [6]: 278 nM | synergistic effects with the BRAF inhibitors Vemurafenib and/or Dabrafenib (in words) (A375 cells): synergistic effects only with Dabrafenib | IC50 [10]: 321 nM

CC(C)(C)c1nc(-c2cccc(NS(=O)(=O)c3c(F)cccc3F)c2F)c(-c2ccnc(N)n2)s1 [Dabrafenib]
IC50 (A375 cells (parental) [3]; [23]): 1.9 nM | Half-maximal inhibitory concentration value (IC50), Mean [6]: n.e. | Half-maximal inhibitory concentration value (IC50), Mean [10]: n.e. | effect on healthy cells, cell viability (in words) [11]: did not have any effect | effect on healthy cells, cell viability (in words) [12]: did not have any effect

Cc1ccc(C(=O)Nc2cccc(C(F)(F)F)c2)cc1Nc1nc(-c2cccnc2)nc2c1cnn2C [NVP-BHG712, reference compound]
IC50 (501Mel cells (parental) [1]; 501Mel parental, 72 h cell viability): 4480 nM | IC50 ([2]; IGR37-XP (Vemurafenib-resistant), 72 h cell viability): 5950 nM | cell viability (kinase inhibitor library screening) ([14]; 1μΜ, in %): 107.1 | cell viability (kinase inhibitor library screening) ([14]; 10μΜ, in %): 25.6 | cell viability (kinase inhibitor library screening) (IGR37 cells (parental) [15]; 1μΜ, in %): 107.5 | cell viability (kinase inhibitor library screening) (IGR37 cells (parental) [15]; 10μΜ, in %): 83.5 | cell viability (kinase inhibitor library screening) ([16]; 1μΜ, in %): 80.6 | cell viability (kinase inhibitor library screening) ([16]; 10μΜ, in %): 37.1 | cell viability (kinase inhibitor library screening) ([17]; 1μΜ, in %): 103.3 | cell viability (kinase inhibitor library screening) ([17]; 10μΜ, in %): 17.6 | cell viability (kinase inhibitor library screening) ([18]; 1μΜ, in %): 97.4 | cell viability (kinase inhibitor library screening) ([18]; 10μΜ, in %): 51.2 | cell viability (kinase inhibitor library screening) ([19]; 1μΜ, in %): 121.0 | cell viability (kinase inhibitor library screening) ([19]; 10μΜ, in %): 2.2 | cell viability (kinase inhibitor library screening) (A375 cells (parental) [20]; 1μΜ, in %): 103.3 | cell viability (kinase inhibitor library screening) (A375 cells (parental) [20]; 10μΜ, in %): 63.1 | cell viability (kinase inhibitor library screening) (501Mel cells (parental) [21]; 1μΜ, in %): 103.2 | cell viability (kinase inhibitor library screening) (501Mel cells (parental) [21]; 10μΜ, in %): 27.8 | cell viability (kinase inhibitor library screening) ([22]; 1μΜ, in %): 84.7 | cell viability (kinase inhibitor library screening) ([22]; 10μΜ, in %): 29.1 | IC50 (A375 cells (parental) [3]; [24]): 4420 nM | IC50 ([5]; 501Mel-XP (Vemurafenib-resistant), 72 h cell viability): 3820 nM | IC50 [6]: 1900 nM | IC50 ([7]; IGR37-GP (Dabrafenib-resistant), 72 h cell viability): 7020 nM | IC50 (IGR37 cells (parental) [8]; IGR37 parental, 72 h cell viability): 5780 nM | IC50 ([9]; 501Mel-GP (Dabrafenib-resistant), 72 h cell viability): 4880 nM | IC50 [10]: 3200 nM

Cc1ccc(C(=O)Nc2ccc(CN3CCN(C)CC3)c(C(F)(F)F)c2)cc1C#Cc1cnc2cccnn12 [Ponatinib]
IC50 (501Mel cells (parental) [1]; Homo sapiens, 72 h): 1170 nM | IC50 ([2]; Homo sapiens, 72 h): 1430 nM | IC50 (A375 cells (parental) [3]; [23]): 628 nM | IC50 ([5]; Homo sapiens, 72 h): 1340 nM | IC50 ([6]; Homo sapiens): 226 nM | IC50 ([7]; Homo sapiens, 72 h): 1350 nM | synergistic effects with the BRAF inhibitors Vemurafenib and/or Dabrafenib (in words) (A375 cells): did not act synergistically | IC50 (IGR37 cells (parental) [8]; Homo sapiens, IGR-37, 72 h): 1080 nM | IC50 ([9]; Homo sapiens, 72 h): 1400 nM | IC50 ([10]; Homo sapiens): 177 nM

COc1cc(OC)c(/C=C/S(=O)(=O)Cc2ccc(OC)c(NCC(=O)O)c2)c(OC)c1 [Rigosertib]
IC50 (501Mel cells (parental) [1]; Homo sapiens, 72 h): 80 nM | IC50 ([2]; Homo sapiens, 72 h): 121 nM | IC50 (A375 cells (parental) [3]; [23]): 64 nM | IC50 ([5]; Homo sapiens, 72 h): 63 nM | IC50 ([6]; Homo sapiens): 50 nM | IC50 ([7]; Homo sapiens, 72 h): 90 nM | synergistic effects with the BRAF inhibitors Vemurafenib and/or Dabrafenib (in words) (A375 cells): did not act synergistically | IC50 (IGR37 cells (parental) [8]; Homo sapiens, IGR-37, 72 h): 103 nM | IC50 ([9]; Homo sapiens, 72 h): 70 nM | IC50 ([10]; Homo sapiens): 59 nM
